According to ChEMBL document CHEMBL4184293, “Structure-based design and biological evaluation of inhibitors of the pseudomonas aeruginosa heme oxygenase (pa-HemO)” (Bioorg Med Chem Lett, 2018):
Calls of active or inactive are those of the source. The calls are words filed in the database; no cut-off is given here.

Legend:
Heme oxygenase = molecular target: T1, Heme oxygenase (Pseudomonas aeruginosa, UniProt O69002); test: Binding affinity to Pseudomonas aeruginosa HemO by intrinsic fluorescence quenching assay
T1 sequence (O69002 whole entry): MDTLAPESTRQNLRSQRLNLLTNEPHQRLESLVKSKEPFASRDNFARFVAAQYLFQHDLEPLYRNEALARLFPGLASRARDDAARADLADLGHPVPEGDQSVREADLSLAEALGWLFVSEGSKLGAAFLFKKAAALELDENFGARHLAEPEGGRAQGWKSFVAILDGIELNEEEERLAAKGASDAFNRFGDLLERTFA

Pseudomonas aeruginosa [1] = test: Antibiofilm activity against Pseudomonas aeruginosa PAO1 after 24 hrs by crystal violet staining based assay; format: functional
[2] = molecular target: T2, Heme oxygenase (Pseudomonas aeruginosa) (UniProt O69002); test: Binding affinity to Pseudomonas aeruginosa HemO assessed as chemical shift perturbations after 2 hrs by 15N-1H TROSY HSQC NMR method
T2 sequence (whole entry): T1 sequence (O69002 whole entry)

Pseudomonas aeruginosa [3] = test: Antibacterial activity against Pseudomonas aeruginosa PAO1 after 4 hrs in presence of heme or FeCl3; format: functional
[4] = molecular target: T2, Heme oxygenase (Pseudomonas aeruginosa); test: Binding affinity to Pseudomonas aeruginosa HemO by STD-NMR method

| Compound | Kd (Heme oxygenase) [µM] | other results |
| --- | --- | --- |
| COC(=O)c1cccc(-c2ccc(C=C3SC(=S)N(CCC(=O)O)C3=O)o2)c1 | 7.6 | – |
| O=C(O)CCN1C(=O)/C(=C/c2ccc(F)cc2)SC1=S | 44 | – |
| N#Cc1cccc(-c2ccc(C=C3SC(=S)N(CCC(=O)O)C3=O)o2)c1 | 13 | – |
| O=C(O)CCN1C(=O)/C(=C/c2ccco2)SC1=S | 38 | – |
| O=C(O)CCN1C(=O)/C(=C/c2cccc(Nc3ccccc3)c2)SC1=S | 1.2 | MBEC99.9 (Pseudomonas aeruginosa [1]): >300 µg/mL; Activity [2]: Active; MIC50 (Pseudomonas aeruginosa [3]; PAO1, 4 h): > 300 mg/L |
| O=C(O)CCN1C(=O)/C(=C/c2ccc(Oc3ccccc3)cc2)SC1=S | 6.5 | – |
| O=C(O)CCN1C(=O)/C(=C/c2c[nH]c3ccccc23)SC1=S | 6.4 | – |
| O=C(O)CCN1C(=O)/C(=C/c2cn(Cc3ccccc3)c3ccccc23)SC1=S | 7.4 | – |
| O=C(O)CCN1C(=O)/C(=C/c2ccc(Cl)c(Cl)c2)SC1=S | 14 | – |
| O=C1Nc2ccc(Cl)cc2/C1=C\c1ccc(-c2ccccc2)cc1 | 5.2 | MBEC99.9 (Pseudomonas aeruginosa [1]): >300 µg/mL; MIC50 (Pseudomonas aeruginosa [3]): inactive |
| COC(=O)c1ccc(-c2ccc(C=C3SC(=S)N(CCC(=O)O)C3=O)o2)cc1 | 28 | – |
| O=C(O)CCN1C(=O)/C(=C/c2ccccn2)SC1=S | 51 | – |
| O=C(O)CCN1C(=O)C(=Cc2cccc(-c3ccccc3)c2)SC1=S | 20 | – |
| O=C1/C(=C/c2ccco2)SC(=S)N1CCc1nn[nH]n1 | 26 | – |
| O=C(O)CCN1C(=O)/C(=C/c2ccc(O)c(O)c2)SC1=S | 57 | – |
| NCCN1C(=O)/C(=C/c2ccc(-c3ccccc3)cc2)SC1=S | 43 | MBEC99.9 (Pseudomonas aeruginosa [1]): >300 µg/mL; MIC50 (Pseudomonas aeruginosa [3]; PAO1, 4 h): > 300 mg/L |
| COc1ccc(/C=C2\SC(=S)N(CCC(=O)O)C2=O)cc1 | 23 | – |
| COC(=O)c1cc(-c2ccc(C=C3SC(=S)N(CCC(=O)O)C3=O)o2)ccc1N | 6.5 | – |
| O=C1/C(=C/c2ccc(O)c(O)c2)SC(=S)N1CCc1nnn[nH]1 | 45 | – |
| O=C1NC(=S)SC1=Cc1ccc(-c2ccccc2)cc1 | 2.3 | MBEC99.9 (Pseudomonas aeruginosa [1]): >300 µg/mL; MIC50 (Pseudomonas aeruginosa [3]): inactive |
| O=C(O)CCN1C(=O)C(=Cc2ccc3ccccc3c2)SC1=S | 3.9 | – |
| O=C1/C(=C/c2ccccn2)SC(=S)N1CCc1nnn[nH]1 | 27 | Activity [4]: Active; Activity [2]: Active |
| COc1cccc(/C=C2\SC(=S)N(CCC(=O)O)C2=O)c1 | 25 | – |
| O=C(O)CCN1C(=O)C(=Cc2ccc(-c3ccccc3)cc2)SC1=S | 3.3 | MBEC99.9 (Pseudomonas aeruginosa [1]): >300 µg/mL; Activity [2]: Active; MIC50 (Pseudomonas aeruginosa [3]; PAO1, 4 h): > 300 mg/L |
| CC(C)c1ccc(/C=C2\SC(=S)N(CCC(=O)O)C2=O)cc1 | 10 | – |
| O=C(O)CCN1C(=O)C(=Cc2ccc(-c3cccc(O)c3)o2)SC1=S | 1.1 | MBEC99.9 (Pseudomonas aeruginosa [1]): >300 µg/mL; Activity [2]: Active; MIC50 (Pseudomonas aeruginosa [3]; PAO1, 4 h): > 300 mg/L |
| CN(C)CCN1C(=O)C(=Cc2ccc(-c3ccccc3)cc2)SC1=S | 18 | MBEC99.9 (Pseudomonas aeruginosa [1]): >300 µg/mL; MIC50 (Pseudomonas aeruginosa [3]): inactive |
| O=C(O)CCN1C(=O)/C(=C/c2ccc(Cl)cc2)SC1=S | 15 | – |
| O=C(O)CCN1C(=O)/C(=C/c2ccc(Cc3ccccc3)cc2)SC1=S | 7 | – |
| O=C(O)CCN1C(=O)C(=Cc2cccc3ccccc23)SC1=S | 13 | – |
